Measurements as given in US20220017512A1 (SHANGHAI ENNOVABIO PHARMACEUTICALS CO., LTD., priority 2018, published 2022).

Tests used:
Assay type in all cases: biochemical
Recombinant human TRKA = biological target: T1, Recombinant human TRKA (Homo sapiens, UniProt P04629); experiment: In vitro activity test on TRKA kinase (HTRF KinEASE TK); conditions: 14.68 μM ATP, 40 min
T1 construct: purchased Carna Biosciences
Procedure: (§1) Biological Test Example 1 In Vitro Activity Test on TRKA, TRKB, TRKC Kinase
(§2) Recombinant human TRKA, TRKB, TRKC proteins were purchased from Carna Biosciences. HTRF KinEASE TK kit was purchased from Cisbio Bioassays. Synergy Neo 2 of Biotek was used to read the plate.
(§3) The tested compound was subjected to 3-fold serial dilution to reach a final concentration of 1 μM to 0.05 nM (10 concentrations), duplicates for each concentration; and the DMSO concentration in the detection reaction was 1%.
0.2 ng/μL TRKA protein kinase, 1 μM TK Substrate-biotin polypeptide substrate, 14.68 μM ATP, 1× enzymatic buffer, 5 mM MgCl2, and 1 mM DTT. The detection plate was White Proxiplate384-Plus plate (PerkinElmer), and incubated at room temperature for 40 min, and the assay volume was 10 μL.
(§4) 10 μL of detection reagent was added to the plate (containing 0.125 μM SA-XL665 and 5 μL 1×TK-Antibody) and incubated overnight at room temperature, and Synergy Neo 2 was used to read the plate.
(§5) The 665/620 Ratio was converted according to the following formula into inhibition rate (%)=(1−Ratiotest/Ratiomax)×100%. Ratiomax was a positive control without tested compound, and Ratiotest was the value of each concentration of different compounds. IC50 (nM) data was obtained by 4 parameter curve fitting (see Table 1).

Recombinant human TRKB = biological target: T2, Recombinant human TRKB (Homo sapiens, UniProt Q16620); experiment: In vitro activity test on TRKB kinase (HTRF KinEASE TK); conditions: 4.77 μM ATP, 50 min
T2 construct: purchased Carna Biosciences
T2 sequence (Q16620 32-822): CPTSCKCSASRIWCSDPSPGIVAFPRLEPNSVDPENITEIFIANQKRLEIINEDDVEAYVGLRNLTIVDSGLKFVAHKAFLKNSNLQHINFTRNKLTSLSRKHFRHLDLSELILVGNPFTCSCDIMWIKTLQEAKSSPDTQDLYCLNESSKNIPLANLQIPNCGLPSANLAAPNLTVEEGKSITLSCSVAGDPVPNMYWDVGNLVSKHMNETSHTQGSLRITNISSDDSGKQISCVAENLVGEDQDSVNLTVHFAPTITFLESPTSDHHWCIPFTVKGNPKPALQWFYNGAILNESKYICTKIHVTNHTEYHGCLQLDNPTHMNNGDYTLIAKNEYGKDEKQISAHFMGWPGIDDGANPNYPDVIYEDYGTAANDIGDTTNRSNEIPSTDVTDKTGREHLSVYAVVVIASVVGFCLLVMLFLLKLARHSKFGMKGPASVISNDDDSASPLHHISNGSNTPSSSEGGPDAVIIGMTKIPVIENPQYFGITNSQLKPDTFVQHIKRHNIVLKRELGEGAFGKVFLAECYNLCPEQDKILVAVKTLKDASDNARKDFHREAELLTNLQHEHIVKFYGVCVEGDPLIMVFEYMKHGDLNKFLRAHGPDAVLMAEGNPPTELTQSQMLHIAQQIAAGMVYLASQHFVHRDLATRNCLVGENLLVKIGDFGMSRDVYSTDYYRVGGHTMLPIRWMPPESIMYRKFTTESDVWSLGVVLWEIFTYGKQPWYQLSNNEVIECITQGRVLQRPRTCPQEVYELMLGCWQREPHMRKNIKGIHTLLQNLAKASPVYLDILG
Procedure: as §1, §2, §3
0.037 ng/μL TRKB protein kinase, 1 μM TK Substrate-biotin polypeptide substrate, 4.77 μM ATP, 1× enzymatic buffer, 5 mM MgCl2, and 1 mM DTT. The detection plate was White Proxiplate 384-Plus plate (PerkinElmer), and incubated at room temperature for 50 min, and the assay volume was 10 μL.
as §4, §5

Recombinant human TRKC = biological target: T3, Recombinant human TRKC (Homo sapiens, UniProt Q16288); experiment: In vitro activity test on TRKC kinase (HTRF KinEASE TK); conditions: 25.64 μM ATP, 40 min
T3 construct: purchased Carna Biosciences
T3 sequence (Q16288 32-839): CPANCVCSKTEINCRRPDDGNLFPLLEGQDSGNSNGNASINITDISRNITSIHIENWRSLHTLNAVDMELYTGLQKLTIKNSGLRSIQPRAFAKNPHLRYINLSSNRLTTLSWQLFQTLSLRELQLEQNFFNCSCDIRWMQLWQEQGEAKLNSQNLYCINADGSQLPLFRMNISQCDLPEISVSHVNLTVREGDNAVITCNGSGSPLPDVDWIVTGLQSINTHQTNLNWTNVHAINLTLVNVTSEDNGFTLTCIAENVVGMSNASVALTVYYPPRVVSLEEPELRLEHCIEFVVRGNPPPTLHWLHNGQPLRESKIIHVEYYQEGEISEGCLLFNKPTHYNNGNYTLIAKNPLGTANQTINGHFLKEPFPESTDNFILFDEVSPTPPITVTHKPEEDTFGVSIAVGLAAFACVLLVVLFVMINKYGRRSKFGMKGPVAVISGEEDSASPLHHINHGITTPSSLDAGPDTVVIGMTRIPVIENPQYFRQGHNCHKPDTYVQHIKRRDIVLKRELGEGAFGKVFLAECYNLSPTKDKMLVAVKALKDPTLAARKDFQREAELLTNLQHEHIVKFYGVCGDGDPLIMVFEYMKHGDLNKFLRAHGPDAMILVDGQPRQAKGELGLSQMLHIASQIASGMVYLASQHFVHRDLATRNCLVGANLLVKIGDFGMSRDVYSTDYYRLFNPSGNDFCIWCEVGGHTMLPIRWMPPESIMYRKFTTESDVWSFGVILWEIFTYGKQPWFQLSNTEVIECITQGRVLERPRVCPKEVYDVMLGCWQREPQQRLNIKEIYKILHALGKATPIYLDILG
Procedure: as §1, §2, §3
0.037 ng/μL TRKC protein kinase, 1 μM TK Substrate-biotin polypeptide substrate, 25.64 μM ATP, 1× enzymatic buffer, 5 mM MgCl2, and 1 mM DTT. The detection plate was White Proxiplate 384-Plus plate (PerkinElmer), and incubated at room temperature for 40 min, and the assay volume was 10 μL.
as §4, §5

[1] = biological target: T4, recombinant human TRKA (G595R) (Homo sapiens, UniProt P04629, G595R); experiment: In vitro activity test on mutant TRKA (G595R) (HTRF KinEASE TK); conditions: 4.5 μM ATP, 30 min
T4 construct: purchased SignalChem
T4 sequence (P04629 33-796 G595R): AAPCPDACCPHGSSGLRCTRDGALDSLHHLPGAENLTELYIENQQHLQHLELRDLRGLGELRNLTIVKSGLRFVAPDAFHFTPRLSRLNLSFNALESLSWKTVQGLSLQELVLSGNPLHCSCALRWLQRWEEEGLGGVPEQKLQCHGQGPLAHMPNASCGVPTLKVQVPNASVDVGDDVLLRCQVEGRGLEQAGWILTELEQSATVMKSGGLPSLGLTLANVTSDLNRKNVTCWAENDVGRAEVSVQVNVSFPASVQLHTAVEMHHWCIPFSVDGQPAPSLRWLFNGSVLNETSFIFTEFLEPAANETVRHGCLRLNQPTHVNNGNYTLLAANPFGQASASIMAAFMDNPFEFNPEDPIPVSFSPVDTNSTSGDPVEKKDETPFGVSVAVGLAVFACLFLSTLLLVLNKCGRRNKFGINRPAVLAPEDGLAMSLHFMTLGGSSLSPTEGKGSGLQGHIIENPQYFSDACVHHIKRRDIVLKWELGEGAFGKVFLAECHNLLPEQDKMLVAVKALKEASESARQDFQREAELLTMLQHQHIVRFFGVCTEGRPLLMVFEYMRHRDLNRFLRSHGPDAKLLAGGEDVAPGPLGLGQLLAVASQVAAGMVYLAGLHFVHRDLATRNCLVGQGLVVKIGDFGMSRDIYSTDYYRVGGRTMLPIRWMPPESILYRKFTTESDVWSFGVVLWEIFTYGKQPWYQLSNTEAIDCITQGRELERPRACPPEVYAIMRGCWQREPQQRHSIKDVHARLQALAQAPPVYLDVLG
Procedure: Biological Test Example 2 In Vitro Activity Test on Mutant TRKA (G595R), TRKA (G667C) and TRKC (G623R)
The recombinant human TRKA (G595R), TRKA (G667C) and TRKC (G623R) proteins were purchased from SignalChem. HTRF kinEASE TK kit was purchased from CisbioBioassays. Synergy Neo 2 of Biotek was used to read the plate.
The tested compound was subjected to 4-fold serial dilution to reach a final concentration of 1 μM to 0.004 nM (10 concentrates), duplicates for each concentration; and 1% DMSO was present in the detection reaction.
0.12 ng/μL TRKA (G595R) kinase, 1 μM TK Substrate-biotin polypeptide substrate, 4.5 μM ATP, 1× enzymatic buffer, 5 mM MgCl2, and 1 mm DTT. The detection plate was White Proxiplate384-Plus plate (PerkinElmer), and incubated at room temperature for 30 min, and the assay volume was 10 μL.
as §4
The value of 665/620 Ratio minus the value of negative control wells without enzyme, then the obtained value was converted according to the following formula into inhibition rate (%)=(1−Ratiotest/Ratiomax)×100%. Ratiomax was a positive control without tested compound, and Ratiotest was the value of each concentration of different compounds. IC50 (nM) data was obtained by 4 parameter curve fitting (see Table 1).

T1 sequence (P04629 33-796): as the sequence (P04629 33-796 G595R) above, with R563G counted along it

| IC50 (Recombinant human TRKA) | IC50 (Recombinant human TRKB) | IC50 (Recombinant human TRKC) | IC50 [1] | SMILES |
| --- | --- | --- | --- | --- |
| < 50 nM | < 50 nM | < 50 nM | – | COc1ccc(CNc2ccnc3ccc(N4CCC[C@@H]4c4cc(F)ccc4F)nc23)cc1 [Example 9, (R)-6-(2-(2,5-Difluorophenyl)pyrrolidin-1-yl)-N-(4-methoxybenzyl)-1,5-naphthyridin-4-amine] |
| < 1 nM | < 10 nM | < 1 nM | < 10 nM | Fc1ccc(F)c([C@H]2C[C@H](F)CN2c2ccc3ncnc(-c4cn(C5CCNCC5)nn4)c3n2)c1 [Example 86, 6-((2R,4S)-2-(2,5-Difluorophenyl)-4-fluoropyrrolidin-1-yl)-4-(1-(piperidin-4-yl)-1H-1,2,3-triazol-4-yl)pyrido[3,2-d]pyrimidine] |
| < 1 nM | < 1 nM | < 1 nM | < 1 nM | O=C1N(c2ccnc3ccc(N4C[C@@H](F)C[C@@H]4c4cc(F)ccc4F)nc23)CC12CCNCC2 [Example 94, 2-(6-((2R,4S)-2-(2,5-difluorophenyl)-4-fluoropyrrolidin-1-yl)-1,5-naphthyridin-4-yl)-2,7-diazaspiro[3.5] nonane-1-one] |
| < 1 nM | < 1 nM | < 1 nM | < 10 nM | Fc1ccc(F)c([C@H]2C[C@H](F)CN2c2ccc3ncnc(-c4cnc(C5CCNCC5)nc4)c3n2)c1 [Example 91, 6-((2R,4S)-2-(2,5-Difluorophenyl)-4-fluoropyrrolidin-1-yl)-4-(2-(piperidin-4-yl)pyrimidin-5-yl)pyrido[3,2-d]pyrimidine] |
| < 10 nM | < 500 nM | < 500 nM | – | O=C1CC(n2cc(-c3ccnc4ccc(N5C[C@@H](F)C[C@@H]5c5cc(F)ccc5F)nc34)cn2)CCN1 (stereo partly drawn) [Example 19, 4-(4-(6-((2R,4S)-2-(2,5-difluorophenyl)-4-fluoropyrrolidin-1-yl)-1,5-naphthyridin-4-yl)-1H-pyrazol-1-yl)piperidin-2-one] |
| < 1 nM | < 1 nM | < 1 nM | < 1 nM | O=C(O)[C@H]1CCN(c2ncc(-c3ncnc4ccc(N5C[C@@H](F)C[C@@H]5c5cc(F)ccc5F)nc34)cn2)C1 [Example 87, (S)-1-(5-(6-((2R,4S)-2-(2,5-difluorophenyl)-4-fluoropyrrolidin-1-yl)pyrido[3,2-d]primidin-4-yl)pyrimidin-2-yl)pyrrolidin-3-carboxylic acid] |
| < 1 nM | < 1 nM | < 1 nM | < 1 nM | O=C(O)[C@@H]1CCN(c2ncc(-c3ncnc4ccc(N5C[C@@H](F)C[C@@H]5c5cc(F)ccc5F)nc34)cn2)C1 [Example 88, (R)-1-(5-(6-((2R,4S)-2-(2,5-difluorophenyl)-4-fluoropyrrolidin-1-yl)pyrido[3,2-d]primidin-4-yl)pyrimidin-2-yl)pyrrolidin-3-carboxylic acid] |
| < 1 nM | < 10 nM | < 10 nM | < 10 nM | Fc1ccc(F)c([C@H]2C[C@H](F)CN2c2ccc3ncnc(-c4noc(C5CCNCC5)n4)c3n2)c1 [Example 81, 3-(6-((2R,4S)-2-(2,5-difluorophenyl)-4-fluoropyrrolidin-1-yl)pyrido[3,2-d]pyrimidin-4-yl)-5-(piperidin-4-yl)-1,2,4-oxadiazole] |
| < 1 nM | < 10 nM | < 1 nM | – | OC1CCN(c2nc(-c3c(F)cnc4ccc(N5C[C@@H](F)C[C@@H]5c5cc(F)ccc5F)nc34)no2)CC1 [Example 84, 1-(3-(6-((2R,4S)-2-(2,5-difluorophenyl)-4-fluoropyrrolidin-1-yl)-3-fluoro-1,5-naphthyridin-4-yl)-1,2,4-oxadiazol-5-yl)piperidin-4-ol] |
| < 1 nM | – | – | – | Fc1ccc(F)c([C@H]2C[C@H](F)CN2c2ccc3nncc(-c4cnn(C5CCNCC5)c4)c3n2)c1 [Example 64, 6-((2R,4S)-2-(2,5-difluorophenyl)-4-fluoropyrrolidin-1-yl)-4-(1-(piperidin-4-yl)-1H-pyrazol-4-yl)pyrido[3,2-c]pyridazine] |
| < 10 nM | < 1 nM | < 10 nM | – | O=C(Nc1ccnc2ccc(N3CCC[C@@H]3c3cc(F)ccc3F)nc12)c1cnc(N2CC[C@H](O)C2)nc1 [Example 8, N-(6-((R)-2-(2,5-difluorophenyl)pyrrolidin-1-yl)-1,5-naphthyridin-4-yl)-2-((S)-3-hydroxypyrrolidin-1-yl)pyrimidin-5-carboxamide] |

The remaining lines, values behind:

| SMILES | IC50 (Recombinant human TRKA) | IC50 (Recombinant human TRKB) | IC50 (Recombinant human TRKC) | IC50 [1] |
| --- | --- | --- | --- | --- |
| O[C@H]1CCN(c2ccnc3ccc(N4CCC[C@@H]4c4cc(F)ccc4F)nc23)C1 [Example 5, (S)-1-(6-((R)-2-(2,5-difluorophenyl)pyrrolidin-1-yl)-1,5-naphthyridin-4-yl)pyrrolidin-3-ol] | < 100 nM | < 500 nM | < 150 nM | – |
| O[C@H]1CCN(c2nc(-c3ncnc4ccc(N5C[C@@H](F)C[C@@H]5c5cc(F)ccc5F)nc34)no2)C1 [Example 68, (S)-1-(3-(6-((2R,4S)-2-(2,5-difluorophenyl)-4-fluoropyrrolidin-1-yl)pyrido[3,2-d]pyrimidin-4-yl)-1,2,4-oxadiazol-5-yl)pyrrolidin-3-ol] | < 1 nM | < 10 nM | < 10 nM | < 10 nM |
| Fc1ccc(F)c([C@H]2C[C@H](F)CN2c2ccc3ncc(Cl)c(-c4cnc(N5CCNCC5)s4)c3n2)c1 [Example 60, 5-(3-Chloro-6-((2R,4S)-2-(2,5-difluorophenyl)-4-fluoropyrrolidin-1-yl)-1,5-naphthyridin-4-yl)-2-(piperazin-4-yl)thiazole] | < 1 nM | < 10 nM | < 1 nM | – |
| O[C@@H]1CCN(c2ccnc3ccc(N4CCC[C@@H]4c4cc(F)ccc4F)nc23)C1 [Example 3, (R)-1-(6-((R)-2-(2,5-difluorophenyl)pyrrolidin-1-yl)-1,5-naphthyridin-4-yl)pyrrolidin-3-ol] | < 150 nM | < 500 nM | < 500 nM | – |
| OCCNc1ccnc2ccc(N3CCC[C@@H]3c3cc(F)ccc3F)nc12 [Example 6, (R)-2-((6-(2-(2,5-Difluorophenyl)pyrrolidin-1-yl)-1,5-naphthyridin-4-yl)amino)ethan-1-ol] | < 100 nM | < 500 nM | < 500 nM | – |
| CN(C)c1ccnc2ccc(N3CCC[C@@H]3c3cc(F)ccc3F)nc12 [Example 4, (R)-6-(2-(2,5-difluorophenyl)pyrrolidin-1-yl)-N,N-dimethyl-1,5-naphthyridin-4-amine] | < 10 nM | < 10 nM | < 10 nM | – |
| OC1CCC(Nc2ccnc3ccc(N4CCC[C@@H]4c4cc(F)ccc4F)nc23)C1 (stereo partly drawn) [Example 1, 3-((6-((R)-2-(2,5-difluorophenyl)pyrrolidin-1-yl)-1,5-naphthyridin-4-yl)amino)cyclopentane-1-ol] | < 10 nM | < 50 nM | < 10 nM | < 50 nM |
| Fc1ccc(F)c([C@H]2C[C@H](F)CN2c2ccc3ncc(Cl)c(-c4cnn([C@H]5CCCNC5)c4)c3n2)c1 [Example 55, 7-chloro-2-((2R,4S)-2-(2,5-difluorophenyl)-4-fluoropyrrolidin-1-yl)-8-(1-((S)-piperidin-3-yl)-1H-pyrazol-4-yl)-1,5-naphthyridine] | < 10 nM | < 500 nM | < 500 nM | – |
| O=C(Nc1c(Cl)cnc2ccc(N3C[C@@H](F)C[C@@H]3c3cc(F)ccc3F)nc12)C1CCNCC1 [Example 62, N-(3-Chloro-6-((2R,4S)-2-(2,5-difluorophenyl)-4-fluoropyrrolidin-1-yl)-1,5-naphthyridin-4-yl) piperidin-4-carboxamide] | < 1 nM | – | – | – |
